Reference: US5506102A (priority 1993, dated 1996)

Molecular target: T1, PR-B (Homo sapiens, UniProt P06401)
T1 sequence (P06401 1-933): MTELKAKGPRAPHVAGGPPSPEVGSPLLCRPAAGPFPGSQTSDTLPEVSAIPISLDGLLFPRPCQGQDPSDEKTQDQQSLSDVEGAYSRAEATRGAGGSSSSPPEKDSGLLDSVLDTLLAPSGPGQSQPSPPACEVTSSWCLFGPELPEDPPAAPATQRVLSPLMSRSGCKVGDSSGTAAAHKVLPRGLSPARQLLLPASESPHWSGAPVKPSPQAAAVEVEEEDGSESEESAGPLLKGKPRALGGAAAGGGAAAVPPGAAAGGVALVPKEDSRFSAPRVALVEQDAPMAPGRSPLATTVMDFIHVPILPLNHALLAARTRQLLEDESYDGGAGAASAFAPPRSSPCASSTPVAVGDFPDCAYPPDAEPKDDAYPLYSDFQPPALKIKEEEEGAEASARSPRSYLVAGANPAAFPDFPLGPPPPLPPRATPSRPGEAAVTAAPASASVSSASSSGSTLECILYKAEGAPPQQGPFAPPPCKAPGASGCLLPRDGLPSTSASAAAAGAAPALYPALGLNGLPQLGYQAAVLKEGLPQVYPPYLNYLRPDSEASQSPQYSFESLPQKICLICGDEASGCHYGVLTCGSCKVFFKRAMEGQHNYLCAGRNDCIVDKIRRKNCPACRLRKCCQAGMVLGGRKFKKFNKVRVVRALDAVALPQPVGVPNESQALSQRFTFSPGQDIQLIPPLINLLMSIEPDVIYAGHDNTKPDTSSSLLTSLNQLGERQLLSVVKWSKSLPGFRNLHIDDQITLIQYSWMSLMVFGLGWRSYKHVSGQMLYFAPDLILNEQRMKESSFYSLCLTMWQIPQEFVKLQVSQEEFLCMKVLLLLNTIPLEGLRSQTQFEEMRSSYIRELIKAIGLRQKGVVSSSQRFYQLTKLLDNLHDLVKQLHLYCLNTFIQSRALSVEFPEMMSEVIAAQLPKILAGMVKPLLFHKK
Assay: Direct inhibition of PR-B transcriptional activity, CV-1 cells
Type: cell-based
Set-up: expressed in transfected cells; host or cells: CV-1, HepG2 (PRE2 tk-LUC); HeLa, also HepG2 and CV-1 (TAT promoter)
Conditions: read-out: IC50 (50% maximal Inhibitory concentration), transcriptional activity of PR-B; in the presence of 10^-8 progesterone

- IC50: 0.6 nM
SMILES: CC#C[C@]1(O)CC[C@H]2[C@@H]3CCC4=CC(=O)CCC4=C3[C@@H](c3ccc(C(C)=O)cc3)C[C@@]21C [ZK112993]
